Measurements from patent US20240400564A1 (Syndax Pharmaceuticals, Inc, priority 2021, published 2024).

Assays:
[1] = test system: MLLr leukemia cell line MV4-11; test: Cell proliferation assay MV4;11 (CellTiter-Glo, 72 hours); format: cell-based; settings: Homo sapiens; MV4-11 cells, 72 hours, CellTiter-Glo; read-out: MV4; 11 IC50
Procedure: Compounds were evaluated for its capacity to inhibit the proliferation of the MLLr leukemia cell line MV4-11 that harbors an MLL1-AF4 fusion protein. MV4-11 cells were cultured for 72 hours with limiting dilutions of compounds and viability was measured using CellTiter-Glo.
Compounds were dissolved to obtain as 10 mM solution in DMSO. The stock was diluted 1:5 to the top concentration of 2 mM in 100% DMSO. For IC50 determination, serial 1:3.16 dilutions were prepared in 100% DMSO by diluting 20 μL into 43.5 μL of DMSO for 8 concentrations. Each prepared DMSO solution were further diluted 1:500 in the cell culture media to obtain the 2× dosing solutions. The final concentrations of tested compounds in the cell culture media ranged from 0.632 nM to 2000 nM.
MV4-11 cells were cultured in IMDM with 10% FBS and 1× Penicillin-Streptomycin at 5% CO2 and 37° C. A cell suspension was prepared containing 15,000 cells/ml in the culture medium and 100 μL of this suspension was added per well to a 96-well cell culture plate. Then, 100 μL of 2× dosing media containing test compounds were added bringing the total volume to 200 μL. These cells were cultured for 72 hours at 37° C. and 5% CO2 in a humidified incubator.
After 72 hours, the cultured cells were mixed and 100 μL was transferred to a 96-well black plate. Cell Titer Glo (100 μl) was then added to this plate. The plate was mixed with shaking for 15 mins at RT, the luminescence was then measured using Tecan Spark 20M spectrophotometer. Cell Viability (%) was determined by RLU of test/RLU average vehicle control*100 and % max inhibition was determined by 100−(% cell viability remaining at the top concentration of compound).

hERG = hERG (Homo sapiens, UniProt Q12809); test: Patch clamp assay (hERG tail currents, whole-cell)
hERG, sequence (Q12809 whole entry): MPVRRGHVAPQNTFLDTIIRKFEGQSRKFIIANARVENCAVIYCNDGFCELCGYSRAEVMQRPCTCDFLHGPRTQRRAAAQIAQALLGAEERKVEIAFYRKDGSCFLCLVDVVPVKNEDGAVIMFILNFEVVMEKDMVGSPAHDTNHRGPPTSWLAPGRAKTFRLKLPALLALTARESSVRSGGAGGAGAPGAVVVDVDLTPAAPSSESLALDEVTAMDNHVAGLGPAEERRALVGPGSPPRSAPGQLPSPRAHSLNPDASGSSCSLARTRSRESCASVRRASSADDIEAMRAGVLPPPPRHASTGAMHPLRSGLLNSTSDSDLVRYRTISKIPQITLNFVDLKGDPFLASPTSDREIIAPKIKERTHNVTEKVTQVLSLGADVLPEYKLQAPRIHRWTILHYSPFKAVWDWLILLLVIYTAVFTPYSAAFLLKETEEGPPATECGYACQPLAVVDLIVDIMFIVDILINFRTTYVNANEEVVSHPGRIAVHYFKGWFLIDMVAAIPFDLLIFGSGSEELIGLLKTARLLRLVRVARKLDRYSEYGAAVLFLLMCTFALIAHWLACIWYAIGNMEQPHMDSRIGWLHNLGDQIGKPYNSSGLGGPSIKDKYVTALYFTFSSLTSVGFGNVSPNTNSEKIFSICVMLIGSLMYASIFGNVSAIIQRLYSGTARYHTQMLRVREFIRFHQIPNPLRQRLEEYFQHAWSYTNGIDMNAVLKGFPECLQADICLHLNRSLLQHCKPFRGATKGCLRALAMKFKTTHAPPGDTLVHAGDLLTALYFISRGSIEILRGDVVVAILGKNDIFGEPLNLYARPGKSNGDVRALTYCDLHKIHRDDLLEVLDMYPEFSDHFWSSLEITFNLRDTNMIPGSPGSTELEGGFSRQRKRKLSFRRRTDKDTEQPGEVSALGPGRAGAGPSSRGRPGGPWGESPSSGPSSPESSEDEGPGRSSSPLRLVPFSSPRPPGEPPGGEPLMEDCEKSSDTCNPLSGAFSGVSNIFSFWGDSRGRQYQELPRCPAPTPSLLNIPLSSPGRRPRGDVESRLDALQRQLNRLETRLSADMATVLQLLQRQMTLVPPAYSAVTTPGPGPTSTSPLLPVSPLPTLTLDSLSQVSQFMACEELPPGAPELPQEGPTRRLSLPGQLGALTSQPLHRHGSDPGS

Row | IC50 [1] | SMILES | hERG % Remaining (hERG; 30 μM compound) | also measured
1 | < 100 nM | CC(C)N(C(=O)c1cc(F)ccc1Oc1cncnc1N1CC2(CCN(C[C@@H]3CC[C@@H](NS(=N)(=O)c4ccccc4)CO3)CC2)C1)C(C)C (mixture of isomers) [Example 228, 5-Fluoro-N,N-diisopropyl-2-((4-(7-(((2S,5R)-5-(phenylsulfonoamidimidamido)tetrahydro-2H-pyran-2-yl)methyl)-2,7-diazaspiro[3.5]nonan-2-yl)pyrimidin-5-yl)oxy)benzamide] |  | 
2 | 100 to 1000 nM | CC[S@@](=N)(=O)N[C@@H]1CC[C@@H](CN2CCC3(CC2)CN(c2ncncc2Oc2ccc(F)cc2C(=O)N(C(C)C)C(C)C)C3)OC1 (single isomer, unassigned) [Example 226] |  | 
3 | < 100 nM | CC[S@](=N)(=O)N[C@@H]1CC[C@@H](CN2CCC3(CC2)CN(c2ncncc2Oc2ccc(F)cc2C(=O)N(C(C)C)C(C)C)C3)OC1 (single isomer, unassigned) [Example 227] |  | 
4 | < 100 nM | CC(C)N(C(=O)c1cc(F)ccc1Oc1cncnc1N1CC2(CCN(C[C@@H]3CC[C@@H](N[S@@](=N)(=O)c4ccccc4)CO3)CC2)C1)C(C)C (single isomer, unassigned) [Example 229] |  | 
5 | < 100 nM | CC(C)N(C(=O)c1cc(F)ccc1Oc1cncnc1N1CC2(CCN(C[C@@H]3CC[C@@H](N[S@](=N)(=O)c4ccccc4)CO3)CC2)C1)C(C)C (single isomer, unassigned) [Example 230] |  | 
6 | < 100 nM | CCS(=O)(=O)N[C@@H]1CC[C@@H](CN2CCC3(CC2)CN(c2ncncc2Oc2ccc(F)cc2C(=O)N(C(C)C)[C@@H]2CC[C@H]2O)C3)OC1 (single isomer, unassigned) [Example 256] |  | 
7 | 100 to 1000 nM | CCS(=O)(=O)N[C@@H]1CC[C@@H](CN2CCC3(CC2)CN(c2ncncc2Oc2ccc(F)cc2C(=O)N(C(C)C)[C@H]2CC[C@@H]2O)C3)OC1 (single isomer, unassigned) [Example 257] |  | 
8 |  | CCNS(=O)(=O)N[C@@H]1CC[C@@H](CN2CCC3(CC2)CN(c2ncnnc2Oc2ccc(F)cc2C(=O)N(C(C)C)C(C)C)C3)OC1 [Example 198, 2-((5-(7-(((2S,5R)-5-((N-Ethylsulfamoyl)amino)tetrahydro-2H-pyran-2-yl)methyl)-2,7-diazaspiro[3.5]nonan-2-yl)-1,2,4-triazin-6-yl)oxy)-5-fluoro-N,N-diisopropylbenzamide] | +++ (≥66%) | 
9 |  | CC(C)N(C(=O)c1cc(F)ccc1Oc1nncnc1N1CC2(CCN(C[C@@H]3CC[C@@H](NS(=O)(=O)N4CCC4)CO3)CC2)C1)C(C)C [Example 199, 2-((5-(7-(((2S,5R)-5-(Azetidine-1-sulfonamido)tetrahydro-2H-pyran-2-yl)methyl)-2,7-diazaspiro[3.5]nonan-2-yl)-1,2,4-triazin-6-yl)oxy)-5-fluoro-N,N-diisopropylbenzamide] | +++ (≥66%) | 
10 |  | C[C@@H]1COC[C@@H](C)N1C(=O)c1cc(F)ccc1Oc1cncnc1N1CC2(CCN(C[C@@H]3CC[C@@H](NS(=O)(=O)N4CCC[C@@H]4C)CO3)CC2)C1 [Example 209, (S)-N-((3R,6S)-6-((2-(5-(2-((3R,5R)-3,5-Dimethylmorpholine-4-carbonyl)-4-fluorophenoxy)pyrimidin-4-yl)-2,7-diazaspiro[3.5]nonan-7-yl)methyl)tetrahydro-2H-pyran-3-yl)-2-methylpyrrolidine-1-sulfonamide] | +++ (≥66%) | 
11 |  | CC(C)N(CC(F)F)C(=O)c1cc(F)ccc1Oc1cncnc1N1CC2(CCN(C[C@@H]3CC[C@@H](NS(=O)(=O)N(C)CCCO)CO3)CC2)C1 [Example 214, N-(2,2-difluoroethyl)-5-fluoro-2-((4-(7-(((2S,5R)-5-((N-(3-hydroxypropyl)-N-methylsulfamoyl)amino)tetrahydro-2H-pyran-2-yl)methyl)-2,7-diazaspiro[3.5]nonan-2-yl)pyrimidin-5-yl)oxy)-N-isopropylbenzamide] | +++ (≥66%) | 
12 |  | CC(C)N(C(=O)c1cc(F)ccc1Oc1cncnc1N1CC2(CCN(C[C@@H]3CC[C@@H](NS(=O)(=O)N4CC5(CCOC5)C4)CO3)CC2)C1)C(C)C [Example 223, 2-((4-(7-(((2S,5R)-5-(6-Oxa-2-azaspiro[3.4]octane-2-sulfonamido)tetrahydro-2H-pyran-2-yl)methyl)-2,7-diazaspiro[3.5]nonan-2-yl)pyrimidin-5-yl)oxy)-5-fluoro-N,N-diisopropylbenzamide] | +++ (≥66%) | 
13 |  | CC(C)N(CC(F)F)C(=O)c1cc(F)ccc1Oc1cncnc1N1CC2(CCN(C[C@@H]3CC[C@@H](NS(=O)(=O)N(C)CCO)CO3)CC2)C1 [Example 239, N-(2,2-difluoroethyl)-5-fluoro-2-((4-(7-(((2S,5R)-5-((N-(2-hydroxyethyl)-N-methylsulfamoyl)amino)tetrahydro-2H-pyran-2-yl)methyl)-2,7-diazaspiro[3.5]nonan-2-yl)pyrimidin-5-yl)oxy)-N-isopropylbenzamide] | +++ (≥66%) | 
14 |  | CC(C)N(CC(F)F)C(=O)c1cc(F)ccc1Oc1cncnc1N1CC2(CCN(C[C@@H]3CC[C@@H](NS(N)(=O)=O)CO3)CC2)C1 [Example 240, N-(2,2-Difluoroethyl)-5-fluoro-N-isopropyl-2-((4-(7-(((2S,5R)-5-(sulfamoylamino)tetrahydro-2H-pyran-2-yl)methyl)-2,7-diazaspiro[3.5]nonan-2-yl)pyrimidin-5-yl)oxy)benzamide] | +++ (≥66%) | 
15 |  | CC(C)N(C(=O)c1cc(F)ccc1Oc1cncnc1N1CC2(CCN(C[C@@H]3CC[C@@H](NS(=O)(=O)N4CCC4)CO3)CC2)C1)C1COC1 [Example 248, 2-((4-(7-(((2S,5R)-5-(Azetidine-1-sulfonamido)tetrahydro-2H-pyran-2-yl)methyl)-2,7-diazaspiro[3.5]nonan-2-yl)pyrimidin-5-yl)oxy)-5-fluoro-N-isopropyl-N-(oxetan-3-yl)benzamide] | +++ (≥66%) | 
16 |  | CC(C)N(C(=O)c1cc(F)ccc1Oc1cncnc1N1CC2(CCN(C[C@@H]3CC[C@@H](NS(=O)(=O)N(C)C)CO3)CC2)C1)C1COC1 [Example 249, 2-((4-(7-(((2S,5R)-5-((N,N-Dimethylsulfamoyl)amino)tetrahydro-2H-pyran-2-yl)methyl)-2,7-diazaspiro[3.5]nonan-2-yl)pyrimidin-5-yl)oxy)-5-fluoro-N-isopropyl-N-(oxetan-3-yl)benzamide] | +++ (≥66%) | 
17 |  | CCS(=O)(=O)N[C@@H]1CC[C@@H](CN2CCC3(CC2)CN(c2ncncc2Oc2ccc(F)cc2C(=O)N(C(C)C)[C@@H]2CC[C@@H]2O)C3)OC1 [Example 258, 2-((4-(7-(((2S,5R)-5-(Ethylsulfonamido)tetrahydro-2H-pyran-2-yl)methyl)-2,7-diazaspiro[3.5]nonan-2-yl)pyrimidin-5-yl)oxy)-5-fluoro-N-((1R,2S)-2-hydroxycyclobutyl)-N-isopropylbenzamide] | ++ (233% and ≤66%) | hERG % Remaining (hERG; 10 μM compound): +++ (≥66%)
18 |  | CCN(C(=O)c1cc(F)ccc1Oc1cncnc1N1CC2(CCN(C[C@H]3CC[C@H](NS(=O)(=O)CC)CC3)CC2)C1)C(C)C [SNDX-5613] | ++ (233% and ≤66%) | hERG % Remaining (hERG; 1 μM compound): +++ (≥66%); hERG % Remaining (hERG; 3 μM compound): +++ (≥66%); hERG % Remaining (hERG; 10 μM compound): ++ (233% and ≤66%); hERG % Remaining (hERG; 100 μM compound): + (<33%); hERG IC50 (μM) (hERG; hERG stably transfected HEK 293 cells): + (<25 PM)
